Reference: patent publication US9795585B2, “Methods of using L-butylphthalide for the prevention and treatment of cerebral ischemia disease” (priority 2004, dated 2017)

Columns and labels:
[1] = system: cerebral edema induced by cerebral artery ligation in rats; test: Cerebral edema induced by ligation of right middle cerebral artery; type: in vivo, male Wistar rats
Description: Experimental Animals: the same as Example 1. Experimental Equipments: Oxygen analyzer. Experimental Methods: Cerebral edema was induced by the ligation of right middle cerebral artery of rats. After 15 minutes, dl-, d-, and l-NBP (40 and 80 mg/kg) were orally administered. The rats were sacrificed after 24 hours. The forebrain was removed, and the cerebral hemispheres on the left and right side were weighed. Dry weight was obtained by baking for 24 hours under 100° C. The weight of water in the brain tissue was thus calculated by subtracting of dry weight from wet weight. Then, the tissues was nitrified for 4 hours, and pH was adjusted by using HCl. Next, the ion selective electrode was connected onto the oxygen analyzer, and the concentrations of Na^+ and K^+ in the brain tissue were measured.

[2] = system: ischemic brain of decapitated mice; test: Ischemic cerebral metabolism of energy induced by decapitation of mice; type: in vivo, KunMing mice; details: NBP 50 and 100 mg/kg oral, sodium Phenobarbital 225 mg/kg ip.; decapitated 30 minutes after administration; 15 seconds ischemia; vs control group
Description: Experimental Animals: KunMing mice.
Test drug: injectable L-butylphthalide was formulated into an emulsion with Tween-80.
Experimental Methods: KunMing mice of 10 to 22 g were divided into 8 groups with 10 mice per group. dl-, d-, and l-NBP (50 and 100 mg/kg/d), sodium Phenobarbital (225 mg/kg ip.) and the vehicle were orally administered. Thirty minutes after administration, the mice were decapitated.
The time between the decapitation and homogenation, which was 15 seconds, was regarded as cerebral ischemic time. Centrifugation and isolation were conducted by the method of Folbergrova, and the contents of lactic acid, ATP and PCr were determined by enzymological method.

[3] = 40 and 80 mg/kg oral 15 minutes after ligation, sacrificed after 24 hours

Row | SMILES | content of Na+ in the brain ([1]; 80 mg/kg oral, decrease seen) | content of water in the brain ([1]; 80 mg/kg oral, decrease seen) | content of K+ in the brain ([1]; 80 mg/kg oral, increase seen) | content of K+ in the brain [1, 3] | content of Na+ in the brain [1, 3] | content of water in the brain [1, 3] | content of ATP in the brain [2] | content of PCr in the brain [2] | content of lactic acid in the brain [2]
1 | CCCCC1OC(=O)c2ccccc21 (racemic) [dl-NBP, butylphthalide] | no statistical significance | no statistical significance | no statistical significance | no significant effect | no significant effect | no significant effect | no such significant effect | no such significant effect | no such significant effect
2 | CCCC[C@@H]1OC(=O)c2ccccc21 [l-NBP, L-butylphthalide] |  |  |  | increase | significantly decrease | significantly decrease | increased | increased | significantly decreased
